In brackets after ≈: the same amount, converted by molar mass.
Key:
[1] = system: Mycobacterium tuberculosis; test: Antibacterial activity against Mycobacterium tuberculosis H37Rv ATCC 27294 after 2 weeks by spot culture growth inhibition assay; type: functional; conditions: H37Rv ATCC 27294, 336 h
[2] = Cytotoxicity against mouse RAW264.7 cells assessed as growth inhibition after 48 hrs by trypan blue assay; type: cell-based
[3] = Selectivity index, ratio of GI50 for mouse RAW264.7 cells to MIC for Mycobacterium tuberculosis H37Rv ATCC 27294; type: toxicity; conditions: read-out: Selectivity Index
[4] = system: Mycolicibacterium smegmatis; test: Antibacterial activity against Mycobacterium smegmatis MC2 155 assessed as growth inhibition; type: functional; conditions: str. MC2 155

**Q.** Which MIC [1] does the source give for `O=C(O)/C=C/c1ccccc1O` [O-COUMARIC ACID] here?
**A.** 122 µM (≈ 20 µg/mL)

**Q.** And the GI50 at 48 h [2]?
**A.** 4560 µM

**Q.** What about the selectivity ratio [3] of the same compound?
**A.** 37.4

**Q.** What about the MIC [4] of the same compound?
**A.** > 600 µM

**Q.** With `CC(C)=CCC/C(C)=C/COc1ccc(/C=C/C(=O)O)cc1` as the compound, how does the MIC [1] read?
**A.** 66.8 µM (≈ 20.1 µg/mL)

**Q.** What about the GI50 at 48 h [2] of the same compound?
**A.** 210 µM

**Q.** And the selectivity ratio [3]?
**A.** 3.14

**Q.** What about the MIC [4] of the same compound?
**A.** > 600 µM

**Q.** Which MIC [1] does the source give for `O=C(O)/C=C/c1ccccc1` [CINNAMIC ACID] here?
**A.** 270 µM (≈ 40 µg/mL)

**Q.** And the GI50 at 48 h [2]?
**A.** 6550 µM

**Q.** And the selectivity ratio [3]?
**A.** 24.2

**Q.** What about the MIC [4] of the same compound?
**A.** > 600 µM

**Q.** Which results are given for `CO[C@H]1/C=C/O[C@@]2(C)Oc3c(C)c(O)c4c(O)c(c(/C=N/N5CCN(C)CC5)c(O)c4c3C2=O)NC(=O)/C(C)=C\C=C\[C@H](C)[C@H](O)[C@@H](C)[C@@H](O)[C@@H](C)[C@H](OC(C)=O)[C@@H]1C` [RIFAMPIN]?
**A.** MIC [1]: 0.0607 µM (≈ 0.05 µg/mL); GI50 at 48 h [2]: 850 µM; selectivity ratio [3]: 14000

**Q.** Which MIC [1] does the source give for `COC(=O)/C=C/c1ccc(OC/C=C(\C)CCC=C(C)C)cc1` here?
**A.** 127 µM (≈ 39.9 µg/mL)

**Q.** And the GI50 at 48 h [2]?
**A.** 159 µM

**Q.** What about the selectivity ratio [3] of the same compound?
**A.** 1.25

**Q.** And the MIC [4]?
**A.** > 600 µM

**Q.** Which MIC [1] does the source give for `NNC(=O)c1ccncc1` [ISONIAZID] here?
**A.** 0.73 µM (≈ 0.1 µg/mL)

**Q.** And the GI50 at 48 h [2]?
**A.** 21900 µM

**Q.** And the selectivity ratio [3]?
**A.** 30000

**Q.** Which MIC [1] does the source give for `COC(=O)/C=C/c1ccc(OCC=C(C)C)cc1` here?
**A.** 81.2 µM (≈ 20 µg/mL)

**Q.** And the GI50 at 48 h [2]?
**A.** 487 µM

**Q.** What about the selectivity ratio [3] of the same compound?
**A.** 6

**Q.** And the MIC [4]?
**A.** > 600 µM

**Q.** Which results are given for `COC(=O)/C=C/c1ccc(O)cc1` [METHYL P-HYDROXYCINNAMATE]?
**A.** MIC [1]: 224 µM (≈ 39.9 µg/mL); GI50 at 48 h [2]: 609 µM; selectivity ratio [3]: 2.72; MIC [4]: > 600 µM

**Q.** Which MIC [1] does the source give for `COC(=O)/C=C/c1cccc(O)c1` here?
**A.** 224 µM (≈ 39.9 µg/mL)

**Q.** What about the GI50 at 48 h [2] of the same compound?
**A.** 850 µM

**Q.** And the selectivity ratio [3]?
**A.** 3.8

**Q.** And the MIC [4]?
**A.** > 600 µM

**Q.** With `CC(C)=CCOc1cccc(/C=C/C(=O)O)c1` as the compound, how does the MIC [1] read?
**A.** 172 µM (≈ 40 µg/mL)

**Q.** What about the selectivity ratio [3] of the same compound?
**A.** 7.53

**Q.** And the MIC [4]?
**A.** > 600 µM

**Q.** For `O=C(O)/C=C/c1ccc(O)cc1` [COUMARIC ACID], which MIC [1] is on record?
**A.** 244 µM (≈ 40.1 µg/mL)

**Q.** And the GI50 at 48 h [2]?
**A.** 4560 µM

**Q.** And the selectivity ratio [3]?
**A.** 18.7

**Q.** What about the MIC [4] of the same compound?
**A.** > 600 µM

**Q.** Which MIC [1] does the source give for `O=C(O)/C=C/c1cccc(O)c1` here?
**A.** 366 µM (≈ 60.1 µg/mL)

**Q.** What about the GI50 at 48 h [2] of the same compound?
**A.** 5290 µM

**Q.** What about the selectivity ratio [3] of the same compound?
**A.** 14.5

**Q.** And the MIC [4]?
**A.** > 600 µM

**Q.** With `COC(=O)/C=C/c1ccccc1OCC=C(C)C` as the compound, how does the MIC [1] read?
**A.** > 406 µM

**Q.** What about the selectivity ratio [3] of the same compound?
**A.** < 6.4

**Q.** And the MIC [4]?
**A.** > 600 µM

**Q.** Which results are given for `COC(=O)/C=C/c1ccccc1O`?
**A.** MIC [1]: 112 µM (≈ 20 µg/mL); GI50 at 48 h [2]: 1120 µM; selectivity ratio [3]: 10; MIC [4]: > 600 µM

**Q.** Which MIC [1] does the source give for `COC(=O)/C=C/c1cccc(OCC=C(C)C)c1` here?
**A.** 244 µM (≈ 60.1 µg/mL)

**Q.** What about the selectivity ratio [3] of the same compound?
**A.** 12.2

**Q.** And the MIC [4]?
**A.** > 600 µM

**Q.** Which MIC [1] does the source give for `CC(C)=CCOc1ccc(/C=C/C(=O)O)cc1` here?
**A.** 86.1 µM (≈ 20 µg/mL)

**Q.** What about the GI50 at 48 h [2] of the same compound?
**A.** 1340 µM

**Q.** What about the selectivity ratio [3] of the same compound?
**A.** 15.6

**Q.** And the MIC [4]?
**A.** > 600 µM

**Q.** For `CC(=O)Nc1ccccc1O`, which MIC [1] is on record?
**A.** 132 µM (≈ 20 µg/mL)

**Q.** What about the GI50 at 48 h [2] of the same compound?
**A.** 4200 µM

**Q.** And the selectivity ratio [3]?
**A.** 31.8

**Q.** What about the MIC [4] of the same compound?
**A.** > 600 µM

**Q.** For `CC(=O)Nc1ccc(O)cc1` [ACETAMINOPHEN], which MIC [1] is on record?
**A.** > 661 µM

**Q.** And the GI50 at 48 h [2]?
**A.** 1000 µM

**Q.** What about the selectivity ratio [3] of the same compound?
**A.** < 1.52

**Q.** What about the MIC [4] of the same compound?
**A.** > 600 µM

**Q.** For `CC(=O)Nc1cccc(O)c1` [METACETAMOL], which MIC [1] is on record?
**A.** > 661 µM

**Q.** And the GI50 at 48 h [2]?
**A.** 5340 µM

**Q.** And the selectivity ratio [3]?
**A.** < 8.08

**Q.** What about the MIC [4] of the same compound?
**A.** > 600 µM

**Q.** With `O=C(O)/C=C/c1ccc2c(c1)OCO2` as the compound, how does the MIC [1] read?
**A.** 312 µM (≈ 60 µg/mL)

**Q.** And the selectivity ratio [3]?
**A.** 8.8

**Q.** What about the MIC [4] of the same compound?
**A.** > 600 µM

**Q.** Which MIC [1] does the source give for `CC(C)=CCOc1ccccc1/C=C/C(=O)O` here?
**A.** 258 µM (≈ 59.9 µg/mL)

**Q.** What about the selectivity ratio [3] of the same compound?
**A.** 6.52

**Q.** What about the MIC [4] of the same compound?
**A.** > 600 µM
